Test results: patent publication US7176192B2, “Method for treating patients for radiation exposure” (BioNumerik Pharmaceuticals, Inc., priority 2001, dated 2007)

Experiments:
[1] = accepted value, species not stated; cited from earlier work
mice = assay: intravenous administration of dimesna to mice, tolerability; type: in vivo; conditions: intravenously, doses higher than 3750 mg/kg
Text: (§1) Mesna and dimesna, as well as some analogues of these compounds, have excellent toxicity profiles in mammalian species. However, it is clear from our earlier discoveries that dimesna has a much lower degree of toxicity relative to mesna; this lower degree of toxicity for dimesna imparts additional therapeutic value to this invention for radiation therapy since it is contemplated that chronic or high doses of dimesna will be needed in some circumstances in order to provide adequate prophylaxis for radiation toxicity as well as for treatment of acute or chronic radiation toxicity.

dogs = assay: intravenous administration of dimesna to dogs, tolerability; type: in vivo; conditions: intravenously, doses higher than 3750 mg/kg
Text: as §1

humans = assay: administration of dimesna to humans, tolerability; type: in vivo; conditions: doses exceeding 15 g/m^2
Text: as §1

Structure (SMILES) | oral LD50 [1] [mg/kg] | adverse effects (mice) | adverse effects (dogs) | adverse effects (humans)
[Cl-].[Na+] [common table salt] | 3750 |  |  | 
O=S(=O)([O-])CCSSCCS(=O)(=O)[O-].[Na+].[Na+] [Dimesna, disodium 2,2′-dithiobis ethane sulfonate] |  | no adverse effects | no adverse effects | no major adverse effects
